The numbers were not newly measured in PMC7529705 (Biochemistry, 2020), which cites them from elsewhere.

This data set has as its system WDR5. Particulars: previously reported.

“Also recorded” adds a separate entry of the source. Where no end group is shown, it is not given here. me2a = asymmetric dimethylation (Arg)

With “H3R2me2a: Histone H3 1–7aa peptide, asymmetrically dimethylated at Arg2 (AR(me2a)TKQTA; UniProt P68431 2-8, looked up, fragment)”, the “Interaction with WDR5” value is “not to interact; also recorded: does not interact”.
